# Source: patent US9951088B2, “D2 receptor modulators and methods of use thereof in the treatment of diseases and disorders” (SUNOVION PHARMACEUTICALS INC., priority 2012, dated 2018)
# What was measured:
# [1] = target: T1, long isoform of human D2 receptor (Homo sapiens, UniProt P14416); assay: Arrestin Antagonist Assay (DRD2L PathHunter CHO-K1 cells, vs EC80 dopamine); settings: for Emax: CHO-K1, read-out: β-arrestin (antagonist mode) Imax
# [2] = target: T1, long isoform of human D2 receptor; assay: Arrestin Agonist Assay (DRD2L PathHunter CHO-K1 cells, β-arrestin recruitment); settings: for Emax: CHO-K1, read-out: β-arrestin (agonist mode) Emax
# [3] = target: T1, long isoform of human D2 receptor; assay: cAMP HTRF Agonist Assay (DRD2L PathHunter CHO-K1 cells, forskolin-stimulated); settings: for Emax: CHO-K1, read-out: cAMP (agonist mode) Emax
# T1 sequence (P14416 whole entry, canonical isoform): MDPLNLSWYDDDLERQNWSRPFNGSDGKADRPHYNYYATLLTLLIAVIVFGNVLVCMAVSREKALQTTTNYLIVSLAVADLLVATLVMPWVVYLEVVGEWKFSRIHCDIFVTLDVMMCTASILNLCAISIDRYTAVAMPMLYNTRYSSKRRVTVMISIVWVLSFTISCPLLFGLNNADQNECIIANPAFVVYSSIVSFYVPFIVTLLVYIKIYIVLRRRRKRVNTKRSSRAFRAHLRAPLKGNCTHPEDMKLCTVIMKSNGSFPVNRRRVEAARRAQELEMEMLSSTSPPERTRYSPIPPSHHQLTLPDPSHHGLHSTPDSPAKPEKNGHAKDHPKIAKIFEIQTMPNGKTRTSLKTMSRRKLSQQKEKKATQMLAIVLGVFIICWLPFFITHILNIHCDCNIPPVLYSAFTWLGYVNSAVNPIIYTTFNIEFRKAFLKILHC
Compound,IC50 [1],Emax [1],EC50 [2],Emax [2],IC50 [3],Emax [3]
"O=C1CCc2ccc(OCCCCN3CCc4nn(-c5ccccn5)cc4C3)cc2N1 [Compound 38, 7-(4-(2-(pyridin-2-yl)-6,7-dihydro-2H-pyrazolo[4,3-c]pyridin-5(4H)-yl)butoxy)-3,4-dihydroquinolin-2(1H)-one]",10 to 100 nM,25 to 50%,< 10 nM,25 to 50%,< 10 nM,50 to 75%
"COc1ccc(-n2cc3c(n2)CCN(CCCCOc2ccc4c(c2)NC(=O)CC4)C3)cc1 [Compound 39, 7-(4-(2-(4-methoxyphenyl)-6,7-dihydro-2H-pyrazolo[4,3-c]pyridin-5(4H)-yl)butoxy)-3,4-dihydroquinolin-2(1H)-one]",1000 to 10000 nM,> 75%,> 10000 nM,< 10%,> 10000 nM,< 10%
"CC(=O)Nc1cccc(OCCCCN2CCc3ccccc3C2)n1 [Compound 40, N-(6-(4-(3,4-dihydroisoquinolin-2(1H)-yl)butoxy)pyridin-2-yl)acetamide]",100 to 1000 nM,> 75%,> 10000 nM,< 10%,> 10000 nM,< 10%
"CCC(=O)Nc1cccc(OCCCCN2CCc3ccccc3C2)n1 [Compound 41, N-(6-(4-(3,4-dihydroisoquinolin-2(1H)-yl)butoxy)pyridin-2-yl)-propionamide]",100 to 1000 nM,> 75%,> 10000 nM,< 10%,> 10000 nM,< 10%
"CS(=O)(=O)Nc1cccc(OCCCCN2CCc3ccccc3C2)n1 [Compound 42, N-(6-(4-(3,4-dihydroisoquinolin-2(1H)-yl)butoxy)pyridin-2-yl)methanesulfonamide]",1000 to 10000 nM,> 75%,> 10000 nM,< 10%,> 10000 nM,< 10%
"CCS(=O)(=O)Nc1cccc(OCCCCN2CCc3ccccc3C2)n1 [Compound 43, N-(6-(4-(3,4-dihydroisoquinolin-2(1H)-yl)butoxy)pyridin-2-yl)-ethanesulfonamide]",100 to 1000 nM,> 75%,> 10000 nM,< 10%,> 10000 nM,< 10%
"c1cc(OCCCCN2CCc3ccccc3C2)nc(-c2cc[nH]n2)c1 [Compound 44, 2-(4-((6-(1H-pyrazol-3-yl)pyridin-2-yl)oxy)butyl)-1,2,3,4-tetrahydroisoquinoline]",10 to 100 nM,> 75%,< 10 nM,10 to 25%,< 10 nM,10 to 25%
"Clc1cccc2c1CCN(CCCCOc1cccc(-c3cc[nH]n3)n1)C2 [Compound 45, 2-(4-((6-(1H-pyrazol-3-yl)pyridin-2-yl)oxy)butyl)-5-chloro-1,2,3,4-tetrahydroisoquinoline]",> 10000 nM,< 10%,10 to 100 nM,> 75%,< 10 nM,> 75%
"Clc1cccc(N2CCN(CCCCOc3cccc(-c4cc[nH]n4)n3)CC2)c1Cl [Compound 46, 1-(4-((6-(1H-pyrazol-3-yl)pyridin-2-yl)oxy)butyl)-4-(2,3-dichlorophenyl)piperazine]",< 10 nM,50 to 75%,< 10 nM,10 to 25%,< 10 nM,50 to 75%
"COc1cccnc1N1CCN(CCCCOc2cccc(-c3cc[nH]n3)n2)CC1 [Compound 47, 1-(4-((6-(1H-pyrazol-3-yl)pyridin-2-yl)oxy)butyl)-4-(3-methoxypyridin-2-yl)piperazine]",< 10 nM,50 to 75%,< 10 nM,10 to 25%,< 10 nM,50 to 75%
"N#Cc1cccnc1N1CCN(CCCCOc2cccc(-c3cc[nH]n3)n2)CC1 [Compound 48, 2-(4-(4-((6-(1H-pyrazol-3-yl)pyridin-2-yl)oxy)butyl)piperazin-1-yl)nicotinonitrile]",10 to 100 nM,25 to 50%,< 10 nM,25 to 50%,< 10 nM,> 75%
"CCOc1ccccc1N1CCN(CCCCOc2cccc(-c3cc[nH]n3)n2)CC1 [Compound 49, 1-(4-((6-(1H-pyrazol-3-yl)pyridin-2-yl)oxy)butyl)-4-(2-ethoxyphenyl)piperazine]",< 10 nM,50 to 75%,< 10 nM,10 to 25%,< 10 nM,50 to 75%
"Clc1ccccc1N1CCN(CCCCOc2cccc(-c3cc[nH]n3)n2)CC1 [Compound 50, 1-(4-((6-(1H-pyrazol-3-yl)pyridin-2-yl)oxy)butyl)-4-(2-chlorophenyl)piperazine]",< 10 nM,50 to 75%,< 10 nM,25 to 50%,< 10 nM,50 to 75%
"c1cc(OCCCCN2CCc3ccccc3C2)nc(-c2c[nH]cn2)c1 [Compound 51, 2-(4-((6-(1H-imidazol-4-yl)pyridin-2-yl)oxy)butyl)-1,2,3,4-tetrahydroisoquinoline]",100 to 1000 nM,> 75%,> 10000 nM,< 10%,> 10000 nM,< 10%
"O=c1ccc2ccc(OCCCCN3CCc4ccccc4C3)nc2[nH]1 [Compound 52, 7-(4-(3,4-dihydroisoquinolin-2(1H)-yl)butoxy)-1,8-naphthyridin-2(1H)-one]",10 to 100 nM,> 75%,< 10 nM,10 to 25%,< 10 nM,50 to 75%
"O=c1ccc2ccc(OCCCCN3CCc4sccc4C3)nc2[nH]1 [Compound 53, 7-(4-(6,7-dihydrothieno[3,2-c]pyridin-5(4H)-yl)butoxy)-1,8-naphthyridin-2(1H)-one]",10 to 100 nM,> 75%,> 10000 nM,< 10%,< 10 nM,10 to 25%
"O=c1ccc2ccc(OCCCCN3CCc4ccsc4C3)nc2[nH]1 [Compound 54, 7-(4-(4,5-dihydrothieno[2,3-c]pyridin-6(7H)-yl)butoxy)-1,8-naphthyridin-2(1H)-one]",< 10 nM,> 75%,> 10000 nM,< 10%,> 10000 nM,< 10%
"COc1ccc2c(c1)CCN(CCCCOc1ccc3ccc(=O)[nH]c3n1)C2 [Compound 55, 7-(4-(6-methoxy-3,4-dihydroisoquinolin-2(1H)-yl)butoxy)-1,8-naphthyridin-2(1H)-one]",< 10 nM,> 75%,< 10 nM,10 to 25%,< 10 nM,25 to 50%
"O=c1ccc2ccc(OCCCCN3CCc4cc(F)ccc4C3)nc2[nH]1 [Compound 56, 7-(4-(6-fluoro-3,4-dihydroisoquinolin-2(1H)-yl)butoxy)-1,8-naphthyridin-2(1H)-one]",< 10 nM,> 75%,> 10000 nM,< 10%,> 10000 nM,< 10%
"N#Cc1ccc2c(c1)CCN(CCCCOc1ccc3ccc(=O)[nH]c3n1)C2 [Compound 57, 2-(4-((7-oxo-7,8-dihydro-1,8-naphthyridin-2-yl)oxy)butyl)-1,2,3,4-tetrahydroisoquinoline-6-carbonitrile]",10 to 100 nM,> 75%,> 10000 nM,< 10%,> 10000 nM,< 10%
